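Step 1: Grow cells in 96-well plates. Step 2: Expose to compound for 48 hours at 5 concentrations. Step 3: Interpolate endpoints linearly; if unreached, use highest concentration. Here, GI50 denotes the concentration required for 50% inhibition of growth. TGI is the concentration that stops growth completely.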
Experiments:
Assay in all cases: NCI tumour cell line growth inhibition, 48 h; in the data active = GI50 below about 0.43 µM; inactive = the rest
UACC-62 melanoma = tested on: UACC-62 melanoma
M14 melanoma = tested on: M14 melanoma
SF-539 CNS = tested on: SF-539 CNS
K-562 leukemia = tested on: K-562 leukemia
A498 renal = tested on: A498 renal
PC-3 prostate = tested on: PC-3 prostate
UACC-257 melanoma = tested on: UACC-257 melanoma
NCI-H460 lung = tested on: NCI-H460 lung
U251 CNS = tested on: U251 CNS
RXF 393 renal = tested on: RXF 393 renal
DU-145 prostate = tested on: DU-145 prostate
MDA-N = tested on: MDA-N
T-47D breast = tested on: T-47D breast
IGROV1 ovarian = tested on: IGROV1 ovarian
TK-10 renal = tested on: TK-10 renal
COLO 205 colon = tested on: COLO 205 colon
UO-31 renal = tested on: UO-31 renal
HOP-92 NSCLC = tested on: HOP-92 NSCLC
SK-MEL-5 melanoma = tested on: SK-MEL-5 melanoma
SK-MEL-28 melanoma = tested on: SK-MEL-28 melanoma
SF-295 CNS = tested on: SF-295 CNS
SR leukemia = tested on: SR leukemia
OVCAR-3 ovarian = tested on: OVCAR-3 ovarian
NCI-H226 lung = tested on: NCI-H226 lung
HCC-2998 colon = tested on: HCC-2998 colon
MDA-MB-231 breast = tested on: MDA-MB-231 breast
SW-620 colon = tested on: SW-620 colon
MDA-MB-435 = tested on: MDA-MB-435
HOP-62 NSCLC = tested on: HOP-62 NSCLC
RPMI-8226 leukemia = tested on: RPMI-8226 leukemia
ACHN renal = tested on: ACHN renal
MCF7 breast = tested on: MCF7 breast
NCI-H23 lung = tested on: NCI-H23 lung
SK-OV-3 ovarian = tested on: SK-OV-3 ovarian
HCT-15 colon = tested on: HCT-15 colon
HL-60(TB) leukemia = tested on: HL-60(TB) leukemia
NCI-H522 lung = tested on: NCI-H522 lung
CCRF-CEM leukemia = tested on: CCRF-CEM leukemia
SNB-19 CNS = tested on: SNB-19 CNS
SK-MEL-2 melanoma = tested on: SK-MEL-2 melanoma
HS 578T breast = tested on: HS 578T breast
OVCAR-8 ovarian = tested on: OVCAR-8 ovarian
OVCAR-4 ovarian = tested on: OVCAR-4 ovarian
HCT-116 colon = tested on: HCT-116 colon
BT-549 breast = tested on: BT-549 breast
HT29 colon = tested on: HT29 colon
MALME-3M melanoma = tested on: MALME-3M melanoma
SF-268 CNS = tested on: SF-268 CNS
NCI/ADR-RES ovarian = tested on: NCI/ADR-RES ovarian
SN12C renal = tested on: SN12C renal
A549 NSCLC = tested on: A549 NSCLC
EKVX NSCLC = tested on: EKVX NSCLC
786-0 renal = tested on: 786-0 renal
MOLT-4 leukemia = tested on: MOLT-4 leukemia
OVCAR-5 ovarian = tested on: OVCAR-5 ovarian
KM12 colon = tested on: KM12 colon
SNB-75 CNS = tested on: SNB-75 CNS
LOX IMVI melanoma = tested on: LOX IMVI melanoma
CAKI-1 renal = tested on: CAKI-1 renal

OC(CN1CCCCC1)c1ccc(/C=C/c2ccc(Cl)cc2)cc1 (stereo unspecified)
50.9 µM: TGI (SK-MEL-2 melanoma)
> 100 µM: TGI (SF-539 CNS) | TGI (K-562 leukemia) | TGI (A498 renal) | TGI (PC-3 prostate) | TGI (NCI-H460 lung) | TGI (U251 CNS) | TGI (RXF 393 renal) | TGI (DU-145 prostate) | TGI (MDA-N) | TGI (T-47D breast) | TGI (TK-10 renal) | TGI (UO-31 renal) | TGI (HOP-92 NSCLC) | TGI (SF-295 CNS) | TGI (SR leukemia) | TGI (OVCAR-3 ovarian) | TGI (NCI-H226 lung) | TGI (HCC-2998 colon) | TGI (MDA-MB-231 breast) | TGI (SW-620 colon) | TGI (MDA-MB-435) | TGI (HOP-62 NSCLC) | TGI (RPMI-8226 leukemia) | TGI (ACHN renal) | TGI (MCF7 breast) | TGI (NCI-H23 lung) | TGI (SK-OV-3 ovarian) | TGI (HL-60(TB) leukemia) | TGI (CCRF-CEM leukemia) | TGI (SNB-19 CNS) | TGI (HS 578T breast) | TGI (OVCAR-8 ovarian) | TGI (OVCAR-4 ovarian) | TGI (HCT-116 colon) | TGI (BT-549 breast) | TGI (HT29 colon) | TGI (MALME-3M melanoma) | TGI (SF-268 CNS) | TGI (NCI/ADR-RES ovarian) | TGI (SN12C renal) | TGI (A549 NSCLC) | TGI (EKVX NSCLC) | TGI (786-0 renal) | TGI (MOLT-4 leukemia) | TGI (OVCAR-5 ovarian)
43.8 µM: TGI (SK-MEL-5 melanoma)
36 µM: TGI (COLO 205 colon)
44.9 µM: TGI (UACC-62 melanoma)
46.7 µM: TGI (UACC-257 melanoma)
40.3 µM: TGI (KM12 colon)
76.3 µM: TGI (HCT-15 colon)
72.7 µM: TGI (NCI-H522 lung)
42.6 µM: TGI (SK-MEL-28 melanoma)
41.9 µM: TGI (M14 melanoma)
66.5 µM: TGI (IGROV1 ovarian)

O=C1OC(=O)C2C1C(c1ccccc1[N+](=O)[O-])C=C(c1ccco1)N2c1ccncc1 (stereo unspecified)
19.8 µM: TGI (SK-MEL-2 melanoma)
23.9 µM: TGI (COLO 205 colon)
5.33 µM: TGI (K-562 leukemia)
14 µM: TGI (T-47D breast)
29.8 µM: TGI (OVCAR-4 ovarian)
6.38 µM: TGI (MOLT-4 leukemia)
19.7 µM: TGI (DU-145 prostate) | TGI (SK-MEL-5 melanoma)
6.84 µM: TGI (UACC-257 melanoma)
37.5 µM: TGI (CAKI-1 renal)
51.6 µM: TGI (OVCAR-5 ovarian)
52.6 µM: TGI (MDA-MB-435) | TGI (NCI/ADR-RES ovarian)
3.31 µM: TGI (HCT-116 colon)
> 39.2 µM: TGI (NCI-H226 lung)
18.8 µM: TGI (MDA-N)
31.6 µM: TGI (A549 NSCLC)
15.8 µM: TGI (HOP-92 NSCLC)
6.13 µM: TGI (HT29 colon)
16.6 µM: TGI (SF-539 CNS)
26.9 µM: TGI (A498 renal)
40.6 µM: TGI (MALME-3M melanoma)
36.4 µM: TGI (UACC-62 melanoma)
15 µM: TGI (SW-620 colon)
3.24 µM: TGI (ACHN renal)
4.65 µM: TGI (KM12 colon)
5.63 µM: TGI (HL-60(TB) leukemia)
15.3 µM: TGI (UO-31 renal)
19.1 µM: TGI (RXF 393 renal)
25 µM: TGI (SN12C renal)
31.8 µM: TGI (OVCAR-8 ovarian)
35.5 µM: TGI (SNB-19 CNS)
35.2 µM: TGI (SNB-75 CNS)
> 26.9 µM: TGI (TK-10 renal)
17 µM: TGI (CCRF-CEM leukemia)
12.8 µM: TGI (HCT-15 colon)
5.3 µM: TGI (IGROV1 ovarian)
24.5 µM: TGI (SK-MEL-28 melanoma) | TGI (SF-295 CNS)
28.1 µM: TGI (PC-3 prostate)
3.82 µM: TGI (LOX IMVI melanoma)
6.17 µM: TGI (NCI-H522 lung)
46.3 µM: TGI (SF-268 CNS)
1.44 µM: TGI (SR leukemia)
12 µM: TGI (U251 CNS)
4.4 µM: TGI (RPMI-8226 leukemia)
> 100 µM: TGI (HS 578T breast)
35.4 µM: TGI (BT-549 breast)
32 µM: TGI (SK-OV-3 ovarian)
31.9 µM: TGI (NCI-H460 lung)
3.97 µM: TGI (786-0 renal)
6.73 µM: TGI (MCF7 breast)
38.2 µM: TGI (HOP-62 NSCLC)
> 50.5 µM: TGI (M14 melanoma)
26.2 µM: TGI (NCI-H23 lung)
32.9 µM: TGI (MDA-MB-231 breast)
39.7 µM: TGI (EKVX NSCLC)
30.5 µM: TGI (OVCAR-3 ovarian)

C1CC[N-]CC1.CC(=N\O)/C(C)=N/O.CC(=N\O)/C(C)=N/O.[CH2-]CCN1CCOCC1.[Co+2]
inactive: GI50 (UACC-62 melanoma) > 100 µM | GI50 (M14 melanoma) > 100 µM | GI50 (SF-539 CNS) > 100 µM | GI50 (K-562 leukemia) > 100 µM | GI50 (A498 renal) > 100 µM | GI50 (PC-3 prostate) > 100 µM | GI50 (UACC-257 melanoma) 98.1 µM | GI50 (NCI-H460 lung) > 100 µM | GI50 (U251 CNS) > 100 µM | GI50 (RXF 393 renal) > 100 µM | GI50 (DU-145 prostate) > 100 µM | GI50 (MDA-N) > 100 µM | GI50 (T-47D breast) > 100 µM | GI50 (IGROV1 ovarian) > 100 µM | GI50 (TK-10 renal) > 100 µM | GI50 (COLO 205 colon) > 100 µM | GI50 (UO-31 renal) > 100 µM | GI50 (HOP-92 NSCLC) > 100 µM | GI50 (SK-MEL-5 melanoma) > 100 µM | GI50 (SK-MEL-28 melanoma) > 100 µM | GI50 (SF-295 CNS) > 100 µM | GI50 (SR leukemia) 6.1 µM | GI50 (OVCAR-3 ovarian) > 100 µM | GI50 (NCI-H226 lung) > 100 µM | GI50 (MDA-MB-231 breast) > 100 µM | GI50 (SW-620 colon) > 100 µM | GI50 (MDA-MB-435) > 100 µM | GI50 (HOP-62 NSCLC) > 100 µM | GI50 (RPMI-8226 leukemia) > 100 µM | GI50 (ACHN renal) > 100 µM | GI50 (SNB-75 CNS) > 100 µM | GI50 (MCF7 breast) > 100 µM | GI50 (SK-OV-3 ovarian) > 100 µM | GI50 (HCT-15 colon) > 100 µM | GI50 (HL-60(TB) leukemia) > 100 µM | GI50 (NCI-H522 lung) > 100 µM | GI50 (SNB-19 CNS) > 100 µM | GI50 (SK-MEL-2 melanoma) > 100 µM | GI50 (HS 578T breast) > 100 µM | GI50 (OVCAR-8 ovarian) > 100 µM | GI50 (OVCAR-4 ovarian) > 100 µM | GI50 (HCT-116 colon) > 100 µM | GI50 (LOX IMVI melanoma) > 100 µM | GI50 (BT-549 breast) > 100 µM | GI50 (HT29 colon) > 100 µM | GI50 (MALME-3M melanoma) > 100 µM | GI50 (SF-268 CNS) > 100 µM | GI50 (NCI/ADR-RES ovarian) > 100 µM | GI50 (SN12C renal) > 100 µM | GI50 (CAKI-1 renal) > 100 µM | GI50 (A549 NSCLC) > 100 µM | GI50 (EKVX NSCLC) > 100 µM | GI50 (786-0 renal) > 100 µM | GI50 (MOLT-4 leukemia) 5.91 µM | GI50 (OVCAR-5 ovarian) > 100 µM | GI50 (KM12 colon) > 100 µM
> 100 µM: TGI (UACC-62 melanoma) | TGI (M14 melanoma) | TGI (SF-539 CNS) | TGI (K-562 leukemia) | TGI (A498 renal) | TGI (PC-3 prostate) | TGI (UACC-257 melanoma) | TGI (NCI-H460 lung) | TGI (U251 CNS) | TGI (RXF 393 renal) | TGI (DU-145 prostate) | TGI (MDA-N) | TGI (T-47D breast) | TGI (IGROV1 ovarian) | TGI (TK-10 renal) | TGI (COLO 205 colon) | TGI (UO-31 renal) | TGI (HOP-92 NSCLC) | TGI (SK-MEL-5 melanoma) | TGI (SK-MEL-28 melanoma) | TGI (SF-295 CNS) | TGI (SR leukemia) | TGI (OVCAR-3 ovarian) | TGI (NCI-H226 lung) | TGI (MDA-MB-231 breast) | TGI (SW-620 colon) | TGI (MDA-MB-435) | TGI (HOP-62 NSCLC) | TGI (RPMI-8226 leukemia) | TGI (ACHN renal) | TGI (SNB-75 CNS) | TGI (MCF7 breast) | TGI (SK-OV-3 ovarian) | TGI (HCT-15 colon) | TGI (HL-60(TB) leukemia) | TGI (NCI-H522 lung) | TGI (SNB-19 CNS) | TGI (SK-MEL-2 melanoma) | TGI (HS 578T breast) | TGI (OVCAR-8 ovarian) | TGI (OVCAR-4 ovarian) | TGI (HCT-116 colon) | TGI (LOX IMVI melanoma) | TGI (BT-549 breast) | TGI (HT29 colon) | TGI (MALME-3M melanoma) | TGI (SF-268 CNS) | TGI (NCI/ADR-RES ovarian) | TGI (SN12C renal) | TGI (CAKI-1 renal) | TGI (A549 NSCLC) | TGI (EKVX NSCLC) | TGI (786-0 renal) | TGI (OVCAR-5 ovarian) | TGI (KM12 colon)
39.5 µM: TGI (MOLT-4 leukemia)

Source: PubChem BioAssay (NCI)
